According to the supplement of paper PMC10307832:

Assays:
Test in all cases: relative viability (nuclei count vs DMSO), 5 days (fraction); higher = more cells survive
[1] = compound: COc1cc(-c2nn([C@H]3CC[C@H](N4CCN(C(C)=O)CC4)CC3)c3ncnc(N)c23)ccc1NC(=O)c1cc2ccccc2n1C + CC1(C)CCC(c2ccc(Cl)cc2)=C(CN2CCN(c3ccc(C(=O)NS(=O)(=O)c4ccc(N[C@H](CCN5CCOCC5)CSc5ccccc5)c(S(=O)(=O)C(F)(F)F)c4)cc3)CC2)C1 [Navitoclax] (partner 0.5 µM)
In short: (§1)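 Lung cancer cell lines were pin-tool dosed in 1536-well plates on the day after seeding, with either a lone drug or a fixed anchor-drug dose plus five library-drug doses (not always all listed) in √10 steps. Nuclei were counted on 4× images after 5 days. Relative viability is the ratio of treated-well to vehicle-well nuclei counts, with each value a median of duplicate plates.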

[2] = compound: COc1cc(-c2nn([C@H]3CC[C@H](N4CCN(C(C)=O)CC4)CC3)c3ncnc(N)c23)ccc1NC(=O)c1cc2ccccc2n1C + CCNC(=O)c1noc(-c2cc(C(C)C)c(O)cc2O)c1-c1ccc(CN2CCOCC2)cc1 [Luminespib] (partner 0.01 µM)
In short: as §1

Midostaurin + Bortezomib = compound: CO[C@@H]1[C@H](N(C)C(=O)c2ccccc2)C[C@H]2O[C@]1(C)n1c3ccccc3c3c4c(c5c6ccccc6n2c5c31)C(=O)NC4 [Midostaurin] + CC(C)C[C@H](NC(=O)[C@H](Cc1ccccc1)NC(=O)c1cnccn1)B(O)O [Bortezomib] (partner 0.002 µM)
In short: as §1

[3] = compound: COc1cc(-c2nn([C@H]3CC[C@H](N4CCN(C(C)=O)CC4)CC3)c3ncnc(N)c23)ccc1NC(=O)c1cc2ccccc2n1C + COc1cc2c(Oc3ccc(NC(=O)C4(C(=O)Nc5ccc(F)cc5)CC4)cc3F)ccnc2cc1OCCCN1CCOCC1 [Foretinib] (partner 0.25 µM)
In short: as §1

[4] = compound: COc1cc(-c2nn([C@H]3CC[C@H](N4CCN(C(C)=O)CC4)CC3)c3ncnc(N)c23)ccc1NC(=O)c1cc2ccccc2n1C + Cc1cc(Nc2cc(N3CCN(C)CC3)nc(Sc3ccc(NC(=O)C4CC4)cc3)n2)n[nH]1 [Tozasertib] (partner 0.1 µM)
In short: as §1

UMC-11 was tested, and the relative viability ([1]; first compound 0.0128 µM) was 0.315, the relative viability ([1]; first compound 0.04048 µM) was 0.323 and the relative viability ([1]; first compound 0.128 µM) was 0.28. For the same cell line, the relative viability ([1]; first compound 1.28 µM) was 0.297, the relative viability ([2]; first compound 0.0128 µM) was 0.928 and the relative viability ([2]; first compound 0.04048 µM) was 0.956. For the same cell line, the relative viability ([2]; first compound 0.128 µM) was 0.922, the relative viability ([2]; first compound 1.28 µM) was 0.818 and the relative viability (Midostaurin + Bortezomib; first compound 0.01 µM) was 0.734. It also gave a relative viability (Midostaurin + Bortezomib; first compound 0.03162 µM) of 0.591, a relative viability (Midostaurin + Bortezomib; first compound 0.1 µM) of 0.508 and a relative viability (Midostaurin + Bortezomib; first compound 0.3162 µM) of 0.34. It also gave a relative viability ([3]; first compound 0.0128 µM) of 0.967, a relative viability ([3]; first compound 0.04048 µM) of 1.07 and a relative viability ([3]; first compound 0.128 µM) of 0.943. For the same cell line, the relative viability ([3]; first compound 1.28 µM) was 0.806, the relative viability ([4]; first compound 0.0128 µM) was 0.225 and the relative viability ([4]; first compound 0.04048 µM) was 0.19. It also gave a relative viability ([4]; first compound 0.128 µM) of 0.197 and a relative viability ([4]; first compound 1.28 µM) of 0.193.
